Experimental data: publication PMC5589751, “Synthesis, high-throughput screening and pharmacological characterization of β–lactam derivatives as TRPM8 antagonists” (Scientific Reports, 2017)
“And” between values parts separate entries of the source, which are not always exact repeats. Equal values may be shown once.

Experiments:
[1] = target: T1, TRPM8 (Rattus norvegicus, UniProt Q8R455); assay: Ca2+ microfluorography (Fluo-4 NW), menthol-induced Ca2+ signal in HEK-CR1-TRPM8 cells; format: cell-based; details: for % Block TRPM8 50 µM: 50 µM compound; for % Block TRPM8 50 µM / IC50: agonist 100 µM menthol, HEK-CR1-TRPM8 cells
T1 construct: expressed in transfected cells
T1 sequence (Q8R455 whole entry): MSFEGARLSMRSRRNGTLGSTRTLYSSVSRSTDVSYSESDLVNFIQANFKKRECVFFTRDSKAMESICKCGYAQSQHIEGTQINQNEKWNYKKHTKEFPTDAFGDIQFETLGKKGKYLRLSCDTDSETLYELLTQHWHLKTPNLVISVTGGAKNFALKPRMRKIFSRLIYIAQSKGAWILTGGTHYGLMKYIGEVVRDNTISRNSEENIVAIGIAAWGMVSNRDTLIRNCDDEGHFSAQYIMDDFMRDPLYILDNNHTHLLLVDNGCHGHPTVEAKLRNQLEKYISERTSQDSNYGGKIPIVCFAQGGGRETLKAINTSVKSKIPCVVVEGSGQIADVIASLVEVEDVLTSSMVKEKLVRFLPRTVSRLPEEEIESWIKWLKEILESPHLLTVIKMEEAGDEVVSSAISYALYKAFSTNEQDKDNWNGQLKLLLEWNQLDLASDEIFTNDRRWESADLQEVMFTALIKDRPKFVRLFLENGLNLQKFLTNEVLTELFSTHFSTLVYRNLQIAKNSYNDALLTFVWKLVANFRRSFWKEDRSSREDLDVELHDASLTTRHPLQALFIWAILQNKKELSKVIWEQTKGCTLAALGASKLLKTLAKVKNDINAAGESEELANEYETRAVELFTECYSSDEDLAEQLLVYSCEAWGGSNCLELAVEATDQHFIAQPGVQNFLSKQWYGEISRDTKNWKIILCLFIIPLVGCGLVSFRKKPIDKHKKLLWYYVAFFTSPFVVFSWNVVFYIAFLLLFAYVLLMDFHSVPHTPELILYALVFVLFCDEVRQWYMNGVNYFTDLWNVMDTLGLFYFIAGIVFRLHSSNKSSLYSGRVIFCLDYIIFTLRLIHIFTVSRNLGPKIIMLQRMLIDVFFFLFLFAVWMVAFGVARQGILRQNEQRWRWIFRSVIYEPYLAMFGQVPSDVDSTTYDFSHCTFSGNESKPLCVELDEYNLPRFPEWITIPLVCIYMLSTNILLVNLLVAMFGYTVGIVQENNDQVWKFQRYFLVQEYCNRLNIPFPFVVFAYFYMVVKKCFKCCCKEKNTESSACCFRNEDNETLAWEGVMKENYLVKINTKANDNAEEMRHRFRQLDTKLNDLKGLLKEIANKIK
Method: (§1) All compounds were tested at two different concentrations (50 and 5 µM) on TRPM8 and TRPV1 channels stably expressed in HEK and SH-SY5Y cell lines, respectively. The agonist induced intracellular Ca^2+ signals were measured using a fluorescent Ca^2+ indicator, in the absence and in the presence of test compounds. […] The obtained results were compared to those of 68 (AMTB, TRPM8 antagonist) and ruthenium red (TRPV1 antagonist). The IC50 values for the assay on TRPM8 were also calculated.
(§2) For fluorescence assays, cells expressing TRP channels (SH-SY5Y-TRPV1 and HEKCR1-TRPM8) were seeded in 96-well plates (Corning Incorporated, Corning, NY) at a cell density of 40,000 cells 2 days before treatment. The day of treatment the medium was replaced with 100 µL of the dye loading solution Fluo-4 NW supplemented with probenecid 2.5 mM. Then the compounds dissolved in DMSO were added at the desired concentrations and the plate(s) were incubated at 37 °C in a humidified atmosphere of 5% CO2 for 60 minutes.
(§3) The fluorescence was measured using instrument settings appropriate for excitation at 485 nm and emission at 535 nm (POLARstar Omega BMG LABtech). […] The corresponding antagonist
(§4) (10 µM Ruthenium Red forTRPV1 and 10 µM 68 for TRPM8) was added for the blockade. The changes in fluorescence intensity were recorded during 15 cycles more. […] The blocking percentage was calculated as follow (Eq. 1):1 %TRPBlockedResponse=(1−Fo−Fi/FCo−FCi)∗100 where Fo is the fluorescence after the addition of menthol in the presence of the compound, Fi is the fluorescence before the addition of menthol in the presence of the compound, FCo is the fluorescence after the addition of menthol in the absence of the compound, FCi is the fluorescence before the addition of menthol in the absence of the compound. To guarantee that our results were useful we only used assays with a Z-factor higher than 0.5.
(§5) The statistical Z-factor to determine the quality of the HTS experiment as was calculated using the equation 2:2 Z‐factor=1−3∗(SDmax+SDmin)/Meanmax−Meanmin where: Meanmax is the mean of the maximum fluorescence in the presence of agonist, SDmax is the standard deviation of the maximum fluorescence in the presence of agonists, Meanmin is the mean of the maximum fluorescence in the presence of agonist and antagonist and SDmin is the standard deviation of the maximum fluorescence in the presence of agonist and antagonist.

[2] = target: TRPV1 (Rattus norvegicus, UniProt O35433); assay: Ca2+ microfluorography (Fluo-4 NW), capsaicin-induced Ca2+ signal in SH-SY5Y-TRPV1 cells; format: cell-based; details: for % Block TRPV1 50 µM: 50 µM compound, agonist 10 µM capsaicin, SH-SY5Y-TRPV1 cells
Sequence of TRPV1 (O35433 whole entry): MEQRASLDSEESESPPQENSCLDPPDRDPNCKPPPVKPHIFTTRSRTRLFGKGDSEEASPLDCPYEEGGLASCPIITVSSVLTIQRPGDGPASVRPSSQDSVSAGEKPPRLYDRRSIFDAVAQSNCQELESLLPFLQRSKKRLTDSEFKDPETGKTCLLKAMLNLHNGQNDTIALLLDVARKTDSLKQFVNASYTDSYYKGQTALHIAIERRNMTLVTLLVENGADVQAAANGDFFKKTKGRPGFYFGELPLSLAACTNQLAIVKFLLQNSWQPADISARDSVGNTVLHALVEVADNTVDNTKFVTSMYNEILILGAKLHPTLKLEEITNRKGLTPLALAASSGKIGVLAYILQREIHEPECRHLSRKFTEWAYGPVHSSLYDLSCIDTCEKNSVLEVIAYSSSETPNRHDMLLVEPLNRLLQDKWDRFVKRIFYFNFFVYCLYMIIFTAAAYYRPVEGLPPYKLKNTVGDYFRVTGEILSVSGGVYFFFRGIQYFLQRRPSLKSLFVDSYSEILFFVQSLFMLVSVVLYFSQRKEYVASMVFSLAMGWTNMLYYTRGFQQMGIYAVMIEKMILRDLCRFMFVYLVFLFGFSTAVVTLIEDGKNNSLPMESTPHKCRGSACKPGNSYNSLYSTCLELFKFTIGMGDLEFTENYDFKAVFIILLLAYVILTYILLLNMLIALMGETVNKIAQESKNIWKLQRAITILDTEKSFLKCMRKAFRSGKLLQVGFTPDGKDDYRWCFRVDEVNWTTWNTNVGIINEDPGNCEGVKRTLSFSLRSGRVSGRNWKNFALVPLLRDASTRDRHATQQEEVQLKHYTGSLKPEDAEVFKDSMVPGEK
Method: as §1, §2, §3, §4, §5

[3] = Kinetic solubility; format: physicochemical

Structure (SMILES) | % Block TRPM8 50 µM [1] | IC50 [1] | % Block TRPV1 50 µM [2] | other results
CC(C)(C)OC(=O)NC(CCCN1C(=O)CC1(Cc1ccccc1)C(=O)O)C(=O)O (stereo not drawn) [Compound 53] | 40.9 ± 10.3% | 68.4 ± 8.5 µM | 20.6 ± 9.2% | 
Cc1cccc(COc2ccccc2C(=O)N(CCCN)Cc2cccs2)c1 [Compound 68, reference compound] | 100% | 7 ± 1 µM |  | 
N.N.N.N.N.N.N.N.N.N.N.N.N.N.[Cl-].[Cl-].[Cl-].[Cl-].[Cl-].[Cl-].[O-2].[O-2].[Ru+3].[Ru+3].[Ru+4] [Ruthenium red, reference compound] |  |  | 100% | IC50 ([2]; printed in the TRPM8 IC50 column, footnote a: evaluated in TRPV1): 0.015 µM
COC(=O)C1(Cc2ccccc2)CC(=O)N1CCC(NC(=O)OCc1ccccc1)C(=O)OC(C)(C)C (stereo not drawn) [Compound 42] | 82% and 82.2 ± 29.0% | 6.2 ± 1.6 µM | 51.7 ± 15.4% | 
COC(=O)C1(Cc2ccccc2)CC(=O)N1CCC(NC(=O)OC(C)(C)C)C(=O)OCc1ccccc1 (stereo not drawn) [Compound 40] | 75% | 6.8 ± 1.02 µM | 42.4 ± 5.3% | 
CNC(CCCN1C(=O)CC1(Cc1ccccc1)C(=O)NC(C)C(=O)OC)C(=O)OC (stereo not drawn) [Compound 61] | 78.3 ± 25.0% | 27 ± 1.7 µM |  | 
COC(=O)C(CCCN1C(=O)CC1(Cc1ccccc1)C(=O)OC(C)(C)C)NC(=O)OCc1ccccc1 (stereo not drawn) [Compound 47] | 94.9 ± 19.7% |  | 49.8 ± 7.2% | 
CC(C)(C)OC(=O)N[C@@H](CCN1C(=O)C[C@@]1(Cc1ccccc1)C(=O)Nc1ccncc1)C(=O)Nc1ccncc1 [Compound 67b] | 52.3 ± 7.6% | 7.26 ± 1.9 µM | 31.7 ± 4.5% | 
COC(=O)[C@H](C)NC(=O)C1(Cc2ccccc2)CC(=O)N1CCC[C@H](NC(=O)OCc1ccccc1)C(=O)OC (stereo partly drawn) [Compound 58] | 50.7 ± 9.5% | 48.4 ± 18.6 µM | 18.3 ± 16.2% | 
CC(C)(C)OC(=O)N[C@@H](CCN1C(=O)C[C@]1(Cc1ccccc1)C(=O)NCc1ccccc1)C(=O)NCc1ccccc1 [Compound 62a] | 70.0 ± 18.6% | 7.1 ± 0.3 µM | 42.5 ± 16.2% | Kinetic solubility ([3]; 1% DMSO): 63 µM and 38 mg/L; Kinetic solubility ([3]; 5% DMSO): 92 µM and 55 mg/L
COC(=O)C1(C)CC(=O)N1CC[C@H](NC(=O)OC(C)(C)C)C(=O)OCc1ccccc1 (stereo partly drawn) [Compound 43] | 80.5 ± 15.8% | 36.8 ± 3.1 µM |  | 
CC(C)(C)OC(=O)NC(CCCN1C(=O)CC1(Cc1ccccc1)C(=O)OCc1ccccc1)C(=O)OCc1ccccc1 (stereo not drawn) [Compound 46] | 86.5±19.6% | 1.7 ± 2.7 µM | 59.4 ± 10.5% | reduction of TRPM8 blockade activity compared with homologue 41 ([1]; longer N-alkyl chain, 46 versus 41): up to 4 fold
CC(C)(C)OC(=O)NC(CCCN1C(=O)CC1(Cc1ccccc1)C(=O)NCc1ccccc1)C(=O)NCc1ccccc1 (stereo not drawn) [Compound 64] | 70.4 ± 15.2% | 11.5 ± 2.7 µM | 26.9 ± 9.2% | 
CC(C)(C)OC(=O)NC(CCN1C(=O)CC1(Cc1ccccc1)C(=O)O)C(=O)O (stereo not drawn) [Compound 51] | 41.7 ± 8.7% | 74.1 ± 3.6 µM | 15.9 ± 4.3% | 
COC(=O)C1(C)CC(=O)N1CCC(NC(=O)OCc1ccccc1)C(=O)OC(C)(C)C (stereo not drawn) [Compound 44] | 21.3 ± 9.8% | 339.8 ± 1.4 µM | 26.8 ± 4.8% | 
CC(C)(C)OC(=O)N[C@@H](CCN1C(=O)C[C@]1(Cc1ccccc1)C(=O)Nc1ccncc1)C(=O)Nc1ccncc1 [Compound 67a] | 43.5 ± 9.8% | 38.1 ± 6.3 µM | 36.3 ± 10.8% | 
CC1CCC(C(C)C)C(O)C1 (stereo not drawn) [menthol, reference compound] |  |  |  | EC50 ([1]; agonist, in our assay): 137 µM
COC(=O)C(CCN1C(=O)CC1(Cc1ccccc1)C(=O)OC)NC(=O)OC(C)(C)C (stereo not drawn) [Compound 39] | 49.2 ± 15.3% | 50.2 ± 1.3 µM |  | 
COC(=O)C(C)NC(=O)C1(Cc2ccccc2)CC(=O)N1CCCC(C(=O)OC)N(C)C(=O)OCc1ccccc1 (stereo not drawn) [Compound 60] | 71.3 ± 18.8% | 32.6 ± 1.8 µM |  | 
COC(=O)[C@H](C)NC(=O)[C@H](CCN1C(=O)C[C@@]1(Cc1ccccc1)C(=O)N[C@@H](C)C(=O)OC)NC(=O)OC(C)(C)C [Compound 57b] | 44.0 ± 16.5% | 70.4 ± 1.6 µM |  | 
COC(=O)[C@H](CCCN1C(=O)CC1(Cc1ccccc1)C(=O)N[C@H](C)C(=O)OC)NC(=O)OCc1ccccc1 (stereo partly drawn) [Compound 59] | 36.2 ± 22.3% | 81.2 ± 4.8 µM | 19.4 ± 5.1% | 
CC(C)(C)OC(=O)NC(CCN1C(=O)CC1(Cc1ccccc1)C(=O)Nc1cccnc1)C(=O)Nc1cccnc1 (stereo not drawn) [Compound 66] | 64.6 ± 13.2% | 5.7 ± 3.4 µM | 22.8 ± 3.7% | Kinetic solubility ([3]; 1% DMSO): > 100 µM; Kinetic solubility ([3]; 5% DMSO): > 500 µM; improved solubility respect to 41 ([3]; ratio to compound 41): > 50 fold; improved solubility respect to 62 ([3]; ratio to compound 62): > 5 fold
